2 molecules from ChEMBL document CHEMBL1138287, “Stereoselective synthesis of a novel 2-aza-7-oxabicyclo[3.3.0]octane as neurokinin-1 receptor antagonist” (Bioorg Med Chem Lett, 2007) can be followed below.

One assay has as its target Substance-P receptor (Homo sapiens, UniProt P25103). The assay can be described thus: Displacement of [3H]substance P from NK1 human receptor expressed in IM9 cells. Type of assay: cell-based, IM-9.
Assay [1] has as its target Voltage-gated L-type calcium channel (Rattus norvegicus, UniProt P22002+Q02485+P27732). The experiment in a line: Displacement of [3H]desmethoxyverapamil from verapamil binding site of L type calcium channel in rat heart.
For assay [2], the species on record is Cavia porcellus. The experiment in a line: Antagonist activity in guinea pig ureter assessed as inhibition of capsaicin-induced plasma extravasation. Type of assay: functional.
The subject of assay [3] is Cavia porcellus. The experiment in a line: Antagonist activity in guinea pig ureter assessed as inhibition of capsaicin-induced plasma extravasation at 1 mg/kg, po. The class given is functional.
The test system of assay [4] is Cavia porcellus. The experiment in a line: Antagonist activity in guinea pig ureter assessed as inhibition of capsaicin-induced plasma extravasation at 10 mg/kg, po. Type of assay: functional.

Bounds are passed on as bounds.

Sequence of Substance-P receptor (P25103 whole entry): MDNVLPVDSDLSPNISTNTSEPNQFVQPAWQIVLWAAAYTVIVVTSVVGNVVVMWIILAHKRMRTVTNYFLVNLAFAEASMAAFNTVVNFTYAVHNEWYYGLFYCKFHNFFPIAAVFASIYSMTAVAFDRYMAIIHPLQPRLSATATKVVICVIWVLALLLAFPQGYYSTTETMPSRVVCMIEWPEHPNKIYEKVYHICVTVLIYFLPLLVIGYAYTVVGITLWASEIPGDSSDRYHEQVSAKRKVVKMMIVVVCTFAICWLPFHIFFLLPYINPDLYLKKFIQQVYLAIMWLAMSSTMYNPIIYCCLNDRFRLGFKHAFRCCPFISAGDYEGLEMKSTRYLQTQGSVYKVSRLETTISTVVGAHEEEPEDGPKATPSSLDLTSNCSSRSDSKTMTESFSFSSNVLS

Regarding `COc1ccc(OC(F)(F)F)cc1CN[C@H]1[C@@H]2COC[C@@H]2N[C@H]1c1ccccc1` (racemic), the values for the concentration for half-maximal inhibition (IC50) (on Substance-P receptor; in assay [1]) were 0.22 nM and > 1000 nM, respectively. Besides, in the assay listed under Cavia porcellus [2], the ED50 worked out at 1 mg/kg. The inhibition in vivo at 1 mg/kg in the assay with Cavia porcellus [3] amounted to 10%. Also, in the assay with Cavia porcellus [4], the inhibition in vivo at 10 mg/kg was 94%.
As to `COc1ccccc1CN[C@H]1[C@@H]2CCC[C@@H]2N[C@H]1c1ccccc1` (racemic), the figures for the 50% inhibitory concentration (IC50) (at Substance-P receptor; in assay [1]) were 3.4 nM and > 1000 nM, respectively.
